Test results taken from patent US20180188270A1, “DIAGNOSTIC TEST FOR ALZHEIMER'S DISEASE BASED ON IDENTIFICATION OF A PROTEOLYTIC PATHWAY” (Health Research, Inc., priority 2015, published 2018).
“Also recorded” adds a separate entry of the source.

Key:
[1] = system: plasma hAβ1-42; test: Effects of oral anticoagulants on plasma level of hAβ1-42 in mice; assay type: in vivo; settings: for top dose tested is the maximal soluble dose: mouse, in vivo; for elevation of plasma levels of hAβ1-42: hAβ1-42 40 μg/kg, 6 h
Protocol: Blood was collected into K3 EDTA-containing tubes (Multivette 600 from Sarstedt). […] Rivaroxaban, dabigatran (dabigatran elexilate) and warfarin (warfarin sodium tablets) were from Bristol-Myers-Squibb, Combi-Blocks, and Advanced Chemblocks, respectively. Rivaroxaban was dissolved in 10% ethanol, 40% Solutol HS15 (Sigma) and 50% water and was administered to mice in 0.2 ml volume per 20 g body weight. Dabigatran was dissolved in 2% dimethyl sulfoxide in soy oil (Sigma) and was also administered to mice in 0.2 ml volume per 20 g body weight. Warfarin was dissolved in water and was administered to mice in 0.1 ml volume per 20 g body weight.

[2] = system: plasma Aβ1-42; test: Plasma Aβ1-42 concentration in mice by ELISA; assay type: in vivo, mouse; settings: FXII−/− mice, CCl4 0.5 g/kg or hPEPD 4 mg/kg i.p., 24 h
Protocol: Animal studies. All animal studies were performed in accordance with protocols approved by the Institutional Animal Care and Use Committee at Roswell Park Cancer Institute. Male mice at 7-8 weeks of age were used, including wild type (WT) mice (C57BL/6), and mice deficient in FXII (C57BL/6-FXII^−/−) or FVII (C57BL/6-FVII^tTA/tTA). WT C57BL/6 mice were purchased from Taconic. C57BL/6-FXII^−/− mice and C57BL/6-FVII^tTA/tTA mice were bred in our own facility and genotyped. […] CCl4 was dissolved in corn oil, whereas all other substances were dissolved in PBS. The vehicle or the test substance was given to mice in 0.1 ml volume per 20 g body weight. Blood was collected from the mice at specific times by cardiac puncture at the time of sacrifice by carbon dioxide, and heart, liver and kidney were also collected from some of the mice. Blood was collected into K3 EDTA-containing tubes (Multivette 600 from Sarstedt), unless specified otherwise. All blood samples were promptly centrifuged to obtain plasma samples.

[3] = system: ERBB1 and ERBB2; test: Tissue levels and phosphorylation of ERBB1 and ERBB2 by IB; assay type: in vivo, mouse; settings: CCl4 0.5 g/kg or hPEPD 4 mg/kg i.p., 24 h
Protocol: (§1) Animal studies. All animal studies were performed in accordance with protocols approved by the Institutional Animal Care and Use Committee at Roswell Park Cancer Institute. Male mice at 7-8 weeks of age were used, including wild type (WT) mice (C57BL/6), and mice deficient in FXII (C57BL/6-FXII^−/−) or FVII (C57BL/6-FVII^tTA/tTA). WT C57BL/6 mice were purchased from Taconic. C57BL/6-FXII^−/− mice and C57BL/6-FVII^tTA/tTA mice were bred in our own facility and genotyped. The breeders were kindly provided by Dr. Francis J. Castellino at University of Notre Dame. […] CCl4 was dissolved in corn oil, whereas all other substances were dissolved in PBS. The vehicle or the test substance was given to mice in 0.1 ml volume per 20 g body weight. Blood was collected from the mice at specific times by cardiac puncture at the time of sacrifice by carbon dioxide, and heart, liver and kidney were also collected from some of the mice. Blood was collected into K3 EDTA-containing tubes (Multivette 600 from Sarstedt), unless specified otherwise. All blood samples were promptly centrifuged to obtain plasma samples.
IB. […] Protein concentrations in all samples were measured by the BCA assay kit. […] The proteins were transferred to polyvinylidene fluoride membrane, probed with specific antibodies and detected using the ECL Plus Kit (Amersham) or the SuperSignal West Pico Kit (Thermo Scientific).

[4] = system: liver; test: Liver damage after CCl4: plasma AST and ALT, liver weight; assay type: in vivo, mouse; settings: WT mice and FXII−/− mice, CCl4 0.5 g/kg i.p., 24 h
Protocol: as §1
Measurement of Plasma Levels of Aspartate Transaminase (AST) and Alanine Transaminase (ALT). Plasma AST activity was measured using the Infinity™ AST (GOT) Reagent kit (Thermo, TR70121). Plasma ALT activity was measured using the Infinity™ ALT (GPT) Reagent kit (Thermo, TR71121). […]

[5] = system: plasma mSRC; test: Plasma SRC concentration in mice by ELISA; assay type: in vivo, mouse; settings: FXII−/− mice, CCl4 0.5 g/kg or hPEPD 4 mg/kg i.p., 24 h
Protocol: as §1, with “Blood was collected into K3 EDTA-containing tubes (Multivette 600 from Sarstedt), unless specified otherwise. All blood samples were promptly centrifuged to obtain plasma samples.” left out
Measurement of plasma levels of PEPD, SRC, Aβ1-42 and FI. […] Upon adequate color development, 100 μl of stop solution (Cell Signaling, 7002) was added to each well, and absorbance at 450 nm was promptly recorded by a microtiter plate reader. Plasma FI concentration was determined using an assay kit (400-374-130050) from GenWay Biotech, following the manufacturer's instruction.

[6] = system: plasma PEPD; test: Plasma PEPD concentration in mice by ELISA; assay type: in vivo, mouse; settings: CCl4 0.5 g/kg i.p., 24 h
Protocol: as §1
Measurement of plasma levels of PEPD, SRC, Aβ1-42 and FI. […] The plates were washed three times with phosphate buffered saline tween-20 (PBST) and the coated wells were blocked by incubation with 200 μl/well of 1% BSA in PBS for at least 2 h at RT. After another round of wash with PBST, the plates were incubated with appropriately diluted Aβ1-42 standard, SRC standard or plasma samples (100 μl/well) for 2 h at RT. The plates were then washed with PBST and incubated with an anti-Aβ1-42 rabbit polyclonal antibody (sc-9129) or anti-SRC rabbit monoclonal antibody (2123) at 100 μl/well for 2 h at RT. The plates were washed again with PBST, and each well was incubated with a goat anti-rabbit IgG-HRP conjugate (100 μl) for 1 h at RT. After yet another round of wash with PBST, each well was incubated with 100 μl of HRP substrate 3,3′,5,5′-tetramethylbenzedine (Cell Signaling, 7004). Upon adequate color development, 100 μl of stop solution (Cell Signaling, 7002) was added to each well, and absorbance at 450 nm was promptly recorded by a microtiter plate reader. Plasma FI concentration was determined using an assay kit (400-374-130050) from GenWay Biotech, following the manufacturer's instruction.

[7] = system: FXII; test: Binding to coagulation factor FXII (IP and IB); parameters: species or system human; settings: 40 nM (hAβ1-42 200 nM) with FXII in PBS, 2 h
Protocol: Binding reactions were carried out in PBS in a total volume of 100 μl for 2 h at 37° C. To assess binding of hPEPD to HMWK, PK, FXI, FXII or a FXII mutant, hPEPD at 40 nM was incubated with a potential binding partner at 0.5 μM. All FXII mutants are His tagged, while FXII is either 6XHis-tagged (generated in our own laboratory) or not His-tagged (purchased commercially), depending on the experiment. To compare hPEPD and its mutants for binding to FXII, hPEPD or a mutant (40 nM) was incubated with FXII at 0.5 μM. Likewise, to assess binding of mSRC to FXII and its mutants, mSRC (40 nM) was incubated with FXII or a mutant at 0.5 μM. At the end of the incubation, 300 μl PBS containing a specific primary antibody was added to the incubation solution, which was further incubated at 4° C. overnight, followed by IP by protein G-agarose, and the precipitates were analyzed by IB. […] The precipitates were re-dissolved in 30 μl of 2% SDS, which were analyzed along with the supernatants by IB.

[8] = system: plasma coagulation factors FXII, PK, HMWK, FXI, FIX, FX, FII, FI and FVII; test: Changes in plasma coagulation factors in mice by IB (FI by ELISA); assay type: in vivo, mouse; settings: WT mice, 6 h after i.p. treatment
Protocol: Animal studies. […] Male mice at 7-8 weeks of age were used, including wild type (WT) mice (C57BL/6), and mice deficient in FXII (C57BL/6-FXII^−/−) or FVII (C57BL/6-FVII^tTA/tTA). WT C57BL/6 mice were purchased from Taconic. C57BL/6-FXII^−/− mice and C57BL/6-FVII^tTA/tTA mice were bred in our own facility and genotyped. […] CCl4 was dissolved in corn oil, whereas all other substances were dissolved in PBS. The vehicle or the test substance was given to mice in 0.1 ml volume per 20 g body weight. Blood was collected from the mice at specific times by cardiac puncture at the time of sacrifice by carbon dioxide, and heart, liver and kidney were also collected from some of the mice. Blood was collected into K3 EDTA-containing tubes (Multivette 600 from Sarstedt), unless specified otherwise. All blood samples were promptly centrifuged to obtain plasma samples.
The plates were washed three times with phosphate buffered saline tween-20 (PBST) and the coated wells were blocked by incubation with 200 μl/well of 1% BSA in PBS for at least 2 h at RT. […] The plates were washed again with PBST, and each well was incubated with a goat anti-rabbit IgG-HRP conjugate (100 μl) for 1 h at RT. After yet another round of wash with PBST, each well was incubated with 100 μl of HRP substrate 3,3′,5,5′-tetramethylbenzedine (Cell Signaling, 7004). Upon adequate color development, 100 μl of stop solution (Cell Signaling, 7002) was added to each well, and absorbance at 450 nm was promptly recorded by a microtiter plate reader. Plasma FI concentration was determined using an assay kit (400-374-130050) from GenWay Biotech, following the manufacturer's instruction.
IB. Tissue samples were mixed with RIPA buffer (25 mM Tris-HCl, pH 7.6, 150 mM NaCl, 1% Nonidet P-40, 1% sodium deoxycholate, 0.1% SDS), supplemented with 2 mM phenylmethanesulfonyl fluoride, a proteinase inhibitor mix (Roche Applied Science) and phosphatase inhibitor Cocktail 2 (Sigma-Aldrich). Tissue samples were stroked in a Dounce homogenizer, and the homogenates were cleared by centrifugation at 12,000×g for 15 min at 4° C. Protein concentrations in all samples were measured by the BCA assay kit. Plasma samples were used without further processing (20 μl per sample). Each sample was mixed with 4× loading dye, heated for 5 min at 95° C. and then resolved by SDS-PAGE (8-12.5%). […] The proteins were transferred to polyvinylidene fluoride membrane, probed with specific antibodies and detected using the ECL Plus Kit (Amersham) or the SuperSignal West Pico Kit (Thermo Scientific).

[9] = system: FXII; test: FXII activation, chromogenic assay; assay type: biochemical, human; settings: FXII 0.97 nM, ZnCl2-containing PBS, RT
Protocol: Measurement of FXII activation. […] FXII activation was followed for 3 h at RT by monitoring the conversion of the chromogenic substrate at 405 nm by a microtiter plate reader.
Each value is mean±SD (n=3).

For O=C(NC[C@H]1CN(c2ccc(N3CCOCC3=O)cc2)C(=O)O1)c1ccc(Cl)s1 [rivaroxaban], the “relative effectiveness in elevating plasma hAβ1-42 level” value ([1]; comparison among warfarin, rivaroxaban, dabigatran and with EP) was “the most effective; also recorded: not as effective as EP”, the “top dose tested is the maximal soluble dose” value [1] was “maximal soluble doses” and the “elevation of plasma levels of hAβ1-42” value ([1]; rivaroxaban 10 mg/kg oral once daily 5 days) was 47.2 fold. For the same molecule, the “elevation of plasma levels of hAβ1-42” value ([1]; rivaroxaban 20 mg/kg oral once daily 5 days) was 55.5 fold.

With CC(=O)CC(c1ccccc1)c1c(O)c2ccccc2oc1=O (centres unmarked) [warfarin] the “elevation of plasma levels of hAβ1-42” value ([1]; warfarin 1 mg/kg oral once daily 5 days) was 33.2 fold and the “elevation of plasma levels of hAβ1-42” value ([1]; warfarin 3 mg/kg oral once daily 5 days) was 42.4 fold.

For ClC(Cl)(Cl)Cl [CCl4, Carbon tetrachloride], the “average plasma level of mAβ1-42, increase” value [2] was 24.9%, the “changes in ERBB1/ERBB2 tyrosine phosphorylation and receptor depletion in heart, kidney and liver, WT mice compared to FXII−/− mice” value [3] was “reduced changes in receptor tyrosine phosphorylation” and the “liver damage (plasma AST, ALT, liver weight)” value [4] was “caused significant but similar liver damage”. The “average plasma level of mSRC, increase” value [5] was 6.7%, the “plasma level of mPEPD, increase” value ([6]; FXII−/− mice) was 16.7 fold and the “plasma level of mPEPD, increase” value ([6]; WT mice) was 3.7 fold.

In the case of [H]/N=C(/N)c1ccc(NCc2nc3cc(C(=O)N(CCC(=O)O)c4ccccn4)ccc3n2C)cc1 [dabigatran], the “elevation of plasma levels of hAβ1-42” value ([1]; dabigatran 22.5 mg/kg oral once daily 5 days) is reported as 14.1 fold, the “elevation of plasma levels of hAβ1-42” value ([1]; dabigatran 45 mg/kg oral once daily 5 days) is reported as 21.3 fold and the “top dose tested is the maximal soluble dose” value [1] is reported as “maximal soluble doses”.

B1: 1M-265Rdel-hPEPD: hPEPD deletion mutant, cannot form homodimers (protein, UniProt P12955 266-493, looked up, fragment)
chain: TIQNGDMCLFDMGGEYYCFASDITCSFPANGKFTADQKAVYEAVLRSSRAVMGAMKPGVWWPDMHRLADRIHLEELAHMGILSGSVDAMVQAHLGAVFMPHGLGHFLGIDVHDVGGYPEGVERIDEPGLRSLRTARHLQPGMVLTVEPGIYFIDHLLDEALADPARASFLNREVLQRFRGFGGVRIEEDVVVTDSGIELLTCVPRTVEEIEACMAGCDKAFTPFSGPK
With B1 the “binding to FXII” value [7] was “almost indistinguishable from hPEPD in FXII binding”.

B2: mPEPD: mouse PEPD purified from mouse kidney by immunoaffinity purification, without any tag (protein, UniProt Q11136 2-493, looked up)
Xaa-Pro dipeptidase: ASTVRPSFSLGNETLKVPLALFALNRQRLCERLRKNGAVQAASAVVLQGGEEMQRYCTDTSIIFRQESFFHWAFGVVESGCYGVIDVDTGKSTLFVPRLPDSYATWMGKIHSKEYFKEKYAVDDVQYTDEIASVLTSRNPSVLLTLRGVNTDSGSVCREASFEGISKFNVNNTILHPEIVECRVFKTDMELEVLRYTNRISSEAHREVMKAVKVGMKEYEMESLFQHYCYSRGGMRHTSYTCICCSGENAAVLHYGHAGAPNDRTIKDGDICLFDMGGEYYCFASDITCSFPANGKFTEDQKAIYEAVLRSCRTVMSTMKPGVWWPDMHRLADRIHLEELARIGLLSGSVDAMLQVHLGAVFMPHGLGHFLGLDVHDVGGYPEGVERIDEPGLRSLRTARHLEPGMVLTVEPGIYFIDHLLDQALADPAQACFFNQEVLQRFRNFGGVRIEEDVVVTDSGMELLTCVPRTVEEIEACMAGCDKASVPFSGQK
With B2 the “activation/cleavage of plasma coagulation factors” value [8] was “elicited the same response as did hPEPD”.

B3: 185V-493Kdel-hPEPD: hPEPD deletion mutant, cannot form homodimers (protein, UniProt P12955 1-184, looked up, fragment)
chain: MAAATGPSFWLGNETLKVPLALFALNRQRLCERLRKNPAVQAGSIVVLQGGEETQRYCTDTGVLFRQESFFHWAFGVTEPGCYGVIDVDTGKSTLFVPRLPASHATWMGKIHSKEHFKEKYAVDDVQYVDEIASVLTSQKPSVLLTLRGVNTDSGSVCREASFDGISKFEVNNTILHPEIVECR
For B3, the “binding to FXII” value [7] was “neither 185V-493Kdel-hPEPD nor 266T-493Kdel-hPEPD could bind to FXII”.

B4: 1M-228Hdel-hPEPD: hPEPD mutant named only once; probably 1M-265Rdel-hPEPD (protein, UniProt P12955 229-493, looked up, fragment)
chain: YCYSRGGMRHSSYTCICGSGENSAVLHYGHAGAPNDRTIQNGDMCLFDMGGEYYCFASDITCSFPANGKFTADQKAVYEAVLRSSRAVMGAMKPGVWWPDMHRLADRIHLEELAHMGILSGSVDAMVQAHLGAVFMPHGLGHFLGIDVHDVGGYPEGVERIDEPGLRSLRTARHLQPGMVLTVEPGIYFIDHLLDEALADPARASFLNREVLQRFRGFGGVRIEEDVVVTDSGIELLTCVPRTVEEIEACMAGCDKAFTPFSGPK
For B4, the “FXII activation, activity relative to hPEPD” value [9] was “about 50%”.

B5: 266T-493Kdel-hPEPD: hPEPD deletion mutant, cannot form homodimers (protein, UniProt P12955 1-265, looked up, fragment)
chain: MAAATGPSFWLGNETLKVPLALFALNRQRLCERLRKNPAVQAGSIVVLQGGEETQRYCTDTGVLFRQESFFHWAFGVTEPGCYGVIDVDTGKSTLFVPRLPASHATWMGKIHSKEHFKEKYAVDDVQYVDEIASVLTSQKPSVLLTLRGVNTDSGSVCREASFDGISKFEVNNTILHPEIVECRVFKTDMELEVLRYTNKISSEAHREVMKAVKVGMKEYELESLFEHYCYSRGGMRHSSYTCICGSGENSAVLHYGHAGAPNDR
With B5 the “binding to FXII” value [7] was “neither 185V-493Kdel-hPEPD nor 266T-493Kdel-hPEPD could bind to FXII”.
